According to patent US11021457B2, “Class of isoindolone-imide ring-1,3-dione-2-ene compounds, composition and use thereof” (WIGEN BIOMEDICINE TECHNOLOGY (SHANGHAI) CO., LTD., priority 2017, dated 2021):

Assays:
[1] = tested on: RPMI-8226; assay: Inhibition of tumor cell proliferation, CellTiter-Glo, RPMI-8226; type: cell-based; settings: compound concentration 50 μM, 72 hours
How it was run: (§1)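 Cells seeded at 2000-10000 per well, treated immediately (suspension) or after adherence (adherent) and cultured at 37° C, 5% CO2. Viability read by CellTiter-Glo at 72 h as blank-corrected survival rate vs control. Scored at 50 μM compound: survival 60-<90% +, >30-60% ++, ≤30% +++.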

[2] = tested on: A549; assay: Inhibition of tumor cell proliferation, CellTiter-Glo, A549; type: cell-based; settings: compound concentration 50 μM, 72 hours
How it was run: as §1

[3] = tested on: BxPC-3; assay: Inhibition of tumor cell proliferation, CellTiter-Glo, BxPC-3; type: cell-based; settings: compound concentration 50 μM, 72 hours
How it was run: as §1

[4] = biological target: LC3B (Homo sapiens (Human), UniProt Q9GZQ8); assay: Fluorescence polarization experiment targeting LC3B (GST-LC3B with FITC-labeled peptide); settings: GST-LC3B 180 nM, FITC-labeled peptide 18 nM, 25° C.
[5] = tested on: MDA-MB-453; assay: Inhibition of tumor cell proliferation, CellTiter-Glo, MDA-MB-453; type: cell-based; settings: compound concentration 50 μM, 72 hours
How it was run: as §1

[6] = tested on: K562; assay: Inhibition of tumor cell proliferation, CellTiter-Glo, K562; type: cell-based; settings: compound concentration 50 μM, 72 hours
How it was run: as §1

[7] = tested on: SU-DHL6; assay: Inhibition of tumor cell proliferation, CellTiter-Glo, SU-DHL6; type: cell-based; settings: compound concentration 50 μM, 72 hours
How it was run: as §1

O=C1CCC(N2Cc3c(NC=C4C(=O)CC(c5c(F)cccc5Cl)CC4=O)cccc3C2=O)C(=O)N1 (stereo not drawn) [Compound 147]
Inhibitory activity against proliferation (cell survival rate) RPMI-8226 [1]: +++ (survival rate (%)≤30)
Inhibitory activity against proliferation (cell survival rate) A549 [2]: +++ (survival rate (%)≤30)
Inhibitory activity against proliferation (cell survival rate) BxPC-3 [3]: ++ (30<survival rate (%)≤60)
IC50 [4]: < 3 µM
Inhibitory activity against proliferation (cell survival rate) MDA-MB-453 [5]: ++ (30<survival rate (%)≤60)
Inhibitory activity against proliferation (cell survival rate) K562 [6]: +++ (survival rate (%)≤30)
Inhibitory activity against proliferation (cell survival rate) SU-DHL6 [7]: +++ (survival rate (%)≤30)

O=C1CCC(N2Cc3c(NC=C4C(=O)CC(c5cccc(Cl)c5Cl)CC4=O)cccc3C2=O)C(=O)N1 (stereo not drawn) [Compound 7]
Inhibitory activity against proliferation (cell survival rate) RPMI-8226 [1]: ++ (30<survival rate (%)≤60)
Inhibitory activity against proliferation (cell survival rate) A549 [2]: ++ (30<survival rate (%)≤60)
Inhibitory activity against proliferation (cell survival rate) BxPC-3 [3]: + (60≤survival rate (%)<90)
IC50 [4]: < 3 µM
Inhibitory activity against proliferation (cell survival rate) MDA-MB-453 [5]: ++ (30<survival rate (%)≤60)
Inhibitory activity against proliferation (cell survival rate) K562 [6]: ++ (30<survival rate (%)≤60)
Inhibitory activity against proliferation (cell survival rate) SU-DHL6 [7]: +++ (survival rate (%)≤30)

O=C1CCC(N2Cc3c(NC=C4C(=O)CC(c5c[nH]c6cccc(Cl)c56)CC4=O)cccc3C2=O)C(=O)N1 (stereo not drawn) [Compound 150]
Inhibitory activity against proliferation (cell survival rate) RPMI-8226 [1]: ++ (30<survival rate (%)≤60)
Inhibitory activity against proliferation (cell survival rate) A549 [2]: +++ (survival rate (%)≤30)
Inhibitory activity against proliferation (cell survival rate) BxPC-3 [3]: + (60≤survival rate (%)<90)
IC50 [4]: < 3 µM
Inhibitory activity against proliferation (cell survival rate) MDA-MB-453 [5]: +++ (survival rate (%)≤30)
Inhibitory activity against proliferation (cell survival rate) K562 [6]: ++ (30<survival rate (%)≤60)
Inhibitory activity against proliferation (cell survival rate) SU-DHL6 [7]: +++ (survival rate (%)≤30)

O=C1CCC(N2Cc3c(NC=C4C(=O)CC(c5ccc(Cl)cc5F)CC4=O)cccc3C2=O)C(=O)N1 (stereo not drawn) [Compound 145]
Inhibitory activity against proliferation (cell survival rate) RPMI-8226 [1]: ++ (30<survival rate (%)≤60)
Inhibitory activity against proliferation (cell survival rate) A549 [2]: +++ (survival rate (%)≤30)
Inhibitory activity against proliferation (cell survival rate) BxPC-3 [3]: + (60≤survival rate (%)<90)
IC50 [4]: < 3 µM
Inhibitory activity against proliferation (cell survival rate) MDA-MB-453 [5]: +++ (survival rate (%)≤30)
Inhibitory activity against proliferation (cell survival rate) K562 [6]: ++ (30<survival rate (%)≤60)
Inhibitory activity against proliferation (cell survival rate) SU-DHL6 [7]: +++ (survival rate (%)≤30)

O=C1CCC(N2Cc3c(NC=C4C(=O)CC(c5c(Br)ccc6[nH]cc(Cl)c56)CC4=O)cccc3C2=O)C(=O)N1 (stereo not drawn) [Compound 14]
Inhibitory activity against proliferation (cell survival rate) RPMI-8226 [1]: + (60≤survival rate (%)<90)
Inhibitory activity against proliferation (cell survival rate) A549 [2]: +++ (survival rate (%)≤30)
Inhibitory activity against proliferation (cell survival rate) BxPC-3 [3]: + (60≤survival rate (%)<90)
IC50 [4]: < 3 µM
Inhibitory activity against proliferation (cell survival rate) MDA-MB-453 [5]: +++ (survival rate (%)≤30)
Inhibitory activity against proliferation (cell survival rate) K562 [6]: + (60≤survival rate (%)<90)
Inhibitory activity against proliferation (cell survival rate) SU-DHL6 [7]: ++ (30<survival rate (%)≤60)

O=C1CCC(N2Cc3c(NC=C4C(=O)CC(c5c(Br)ccc(F)c5Cl)CC4=O)cccc3C2=O)C(=O)N1 (stereo not drawn) [Compound 11]
Inhibitory activity against proliferation (cell survival rate) RPMI-8226 [1]: + (60≤survival rate (%)<90)
Inhibitory activity against proliferation (cell survival rate) A549 [2]: + (60≤survival rate (%)<90)
Inhibitory activity against proliferation (cell survival rate) BxPC-3 [3]: + (60≤survival rate (%)<90)
IC50 [4]: < 3 µM
Inhibitory activity against proliferation (cell survival rate) MDA-MB-453 [5]: + (60≤survival rate (%)<90)
Inhibitory activity against proliferation (cell survival rate) K562 [6]: +++ (survival rate (%)≤30)
Inhibitory activity against proliferation (cell survival rate) SU-DHL6 [7]: + (60≤survival rate (%)<90)
